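Test compounds were applied to cells in 96-well plates for 48 hours at 5 doses. At the TGI there is no net growth.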
What was measured:
Experiment in all cases: DTP human tumour cell line panel, 48 h
[1] = test system: 786-0 renal
[2] = test system: A498 renal
[3] = test system: A549 NSCLC
[4] = test system: ACHN renal
[5] = test system: BT-549 breast
[6] = test system: CAKI-1 renal
[7] = test system: CCRF-CEM leukemia
[8] = test system: COLO 205 colon
[9] = test system: DU-145 prostate
[10] = test system: EKVX NSCLC
[11] = test system: HCC-2998 colon
[12] = test system: HCT-116 colon
[13] = test system: HCT-15 colon
[14] = test system: HL-60(TB) leukemia
[15] = test system: HOP-62 NSCLC
[16] = test system: HOP-92 NSCLC
[17] = test system: HS 578T breast
[18] = test system: HT29 colon
[19] = test system: IGROV1 ovarian
[20] = test system: K-562 leukemia
[21] = test system: KM12 colon
[22] = test system: LOX IMVI melanoma
[23] = test system: M14 melanoma
[24] = test system: MALME-3M melanoma
[25] = test system: MCF7 breast
[26] = test system: MDA-MB-231 breast
[27] = test system: MDA-MB-435
[28] = test system: MDA-N
[29] = test system: MOLT-4 leukemia
[30] = test system: NCI-H226 lung
[31] = test system: NCI-H23 lung
[32] = test system: NCI-H460 lung
[33] = test system: NCI-H522 lung
[34] = test system: NCI/ADR-RES ovarian
[35] = test system: OVCAR-3 ovarian
[36] = test system: OVCAR-4 ovarian
[37] = test system: OVCAR-5 ovarian
[38] = test system: OVCAR-8 ovarian
[39] = test system: PC-3 prostate
[40] = test system: RPMI-8226 leukemia
[41] = test system: RXF 393 renal
[42] = test system: SF-268 CNS
[43] = test system: SF-295 CNS
[44] = test system: SF-539 CNS
[45] = test system: SK-MEL-2 melanoma
[46] = test system: SK-MEL-28 melanoma
[47] = test system: SK-MEL-5 melanoma
[48] = test system: SK-OV-3 ovarian
[49] = test system: SN12C renal
[50] = test system: SNB-19 CNS
[51] = test system: SNB-75 CNS
[52] = test system: SR leukemia
[53] = test system: SW-620 colon
[54] = test system: T-47D breast
[55] = test system: TK-10 renal
[56] = test system: U251 CNS
[57] = test system: UACC-257 melanoma
[58] = test system: UACC-62 melanoma
[59] = test system: UO-31 renal
[60] = test system: DLD-1 colon
[61] = test system: DMS 273 small cell lung
[62] = test system: HOP-18 NSCLC
[63] = test system: KM20L2 colon
[64] = test system: XF 498 CNS

SMILES: O=C1c2ccccc2C(=O)c2c(NC3CCCCC3)ccc(Nc3ccc(S(=O)(=O)O)cc3)c21
- TGI [1]: > 100 µM
- TGI [2]: > 100 µM
- TGI [3]: > 100 µM
- TGI [4]: > 100 µM
- TGI [5]: > 100 µM
- TGI [6]: > 100 µM
- TGI [7]: > 100 µM
- TGI [8]: 53.1 µM
- TGI [9]: > 100 µM
- TGI [10]: 64.4 µM
- TGI [11]: 71.1 µM
- TGI [12]: > 100 µM
- TGI [13]: > 100 µM
- TGI [14]: 99.8 µM
- TGI [15]: > 100 µM
- TGI [16]: > 100 µM
- TGI [17]: > 100 µM
- TGI [18]: > 100 µM
- TGI [19]: > 100 µM
- TGI [20]: > 100 µM
- TGI [21]: > 100 µM
- TGI [22]: > 100 µM
- TGI [23]: > 100 µM
- TGI [24]: 58.7 µM
- TGI [25]: 86.8 µM
- TGI [26]: 69.9 µM
- TGI [27]: > 100 µM
- TGI [28]: > 100 µM
- TGI [29]: > 100 µM
- TGI [30]: > 100 µM
- TGI [31]: > 100 µM
- TGI [32]: > 100 µM
- TGI [33]: 52.5 µM
- TGI [34]: > 100 µM
- TGI [35]: > 100 µM
- TGI [36]: > 100 µM
- TGI [37]: > 100 µM
- TGI [38]: > 100 µM
- TGI [39]: 83 µM
- TGI [40]: > 100 µM
- TGI [41]: > 100 µM
- TGI [42]: > 100 µM
- TGI [43]: > 100 µM
- TGI [44]: > 100 µM
- TGI [45]: 99.8 µM
- TGI [46]: > 100 µM
- TGI [47]: > 100 µM
- TGI [48]: > 100 µM
- TGI [49]: 60.5 µM
- TGI [50]: > 100 µM
- TGI [51]: > 100 µM
- TGI [52]: > 100 µM
- TGI [53]: > 100 µM
- TGI [54]: > 100 µM
- TGI [55]: > 100 µM
- TGI [56]: 88.7 µM
- TGI [57]: 63.7 µM
- TGI [58]: > 100 µM
- TGI [59]: > 100 µM

SMILES: O=C(c1ccc(Cl)cc1)C1OC12C(=O)Nc1c(Cl)cc(Cl)cc12 (centres undefined)
- TGI [1]: > 100 µM
- TGI [2]: > 100 µM
- TGI [3]: > 100 µM
- TGI [4]: > 100 µM
- TGI [7]: 66.3 µM
- TGI [60]: > 100 µM
- TGI [61]: > 100 µM
- TGI [10]: 65.2 µM
- TGI [11]: > 100 µM
- TGI [13]: > 100 µM
- TGI [62]: > 100 µM
- TGI [15]: > 100 µM
- TGI [18]: > 100 µM
- TGI [20]: > 100 µM
- TGI [21]: > 100 µM
- TGI [63]: > 100 µM
- TGI [22]: > 100 µM
- TGI [24]: > 100 µM
- TGI [30]: > 100 µM
- TGI [31]: > 100 µM
- TGI [32]: > 100 µM
- TGI [35]: 77.8 µM
- TGI [37]: > 100 µM
- TGI [38]: > 100 µM
- TGI [40]: 45.4 µM
- TGI [42]: > 100 µM
- TGI [43]: > 100 µM
- TGI [44]: > 100 µM
- TGI [45]: > 100 µM
- TGI [46]: > 100 µM
- TGI [47]: > 100 µM
- TGI [49]: > 100 µM
- TGI [50]: > 100 µM
- TGI [51]: 83.4 µM
- TGI [53]: > 100 µM
- TGI [55]: > 100 µM
- TGI [56]: > 100 µM
- TGI [57]: > 100 µM
- TGI [59]: > 100 µM
- TGI [64]: 87.8 µM

Source: PubChem BioAssay (NCI)
